Consider seven compounds from ChEMBL document CHEMBL1641568, “An on-bead assay for the identification of non-natural peptides targeting the androgen receptor-cofactor interaction” (Bioorg Med Chem, 2011).

A short description of the experiment: Inhibition of human GST-tagged androgen receptor-ligand binding domain/cofactor interaction assessed as fluorescence polarization by competition assay. Background: Polarisation of emitted light reports the rotation of a fluorescent probe.

Square brackets hold non-standard residues; d marks the D form. Peptide text beside a SMILES is read from it. Phe(4-Cl) = N[C@@H](Cc1ccc(Cl)cc1)C(=O)O; 2Nal = N[C@@H](Cc1ccc2ccccc2c1)C(=O)O; Cha = N[C@@H](CC1CCCCC1)C(=O)O

In general, Ki refers to a dissociation constant, usually derived from enzyme kinetics or from competition with a known ligand. In the case of `CC(C)C[C@H](NC(=O)[C@H](CCCNC(=N)N)NC(=O)[C@H](CO)NC(=O)[C@@H](N)CO)C(=O)N[C@@H](CCC(=O)O)C(=O)N[C@@H](CO)C(=O)N[C@@H](Cc1c[nH]c2ccccc12)C(=O)N[C@@H](Cc1ccc(Cl)cc1)C(=O)N[C@@H](C)C(=O)NCC(=O)N[C@@H](CCC(=O)O)C(=O)N[C@@H](CCCCN)C(=O)N[C@@H](CCC(=O)O)C(=O)N[C@@H](CO)C(=O)N[C@@H](CCCNC(=N)N)C(=O)NCC(=O)O` (H-SSRLESW[Phe(4-Cl)]AGEKESRG-OH), the Ki came to 166000 nM.

For the compound `C[C@H](NC(=O)[C@H](CC1CCCCC1)NC(=O)[C@H](Cc1ccccc1)NC(=O)[C@H](CO)NC(=O)[C@H](CCC(=O)O)NC(=O)[C@H](Cc1c[nH]c2ccccc12)NC(=O)[C@H](CCCNC(=N)N)NC(=O)[C@H](CO)NC(=O)[C@@H](N)CO)C(=O)NCC(=O)N[C@@H](CCC(=O)O)C(=O)N[C@@H](CCCCN)C(=O)N[C@@H](CCC(=O)O)C(=O)N[C@@H](CO)C(=O)N[C@@H](CCCNC(=N)N)C(=O)NCC(=O)O` (H-SSRWESF[Cha]AGEKESRG-OH), the Ki was found to be 2440 nM.

`CC(C)C[C@H](NC(=O)[C@H](CO)NC(=O)[C@H](CCC(=O)O)NC(=O)[C@H](Cc1ccc2ccccc2c1)NC(=O)[C@H](CCCNC(=N)N)NC(=O)[C@H](CO)NC(=O)[C@@H](N)CO)C(=O)N[C@@H](Cc1c[nH]c2ccccc12)C(=O)N[C@@H](C)C(=O)NCC(=O)N[C@@H](CCC(=O)O)C(=O)N[C@@H](CCCCN)C(=O)N[C@@H](CCC(=O)O)C(=O)N[C@@H](CO)C(=O)N[C@@H](CCCNC(=N)N)C(=O)NCC(=O)O` (H-SSR[2Nal]ESLWAGEKESRG-OH): the inhibition constant Ki was 3680 nM.

`C[C@H](NC(=O)[C@H](Cc1c[nH]c2ccccc12)NC(=O)[C@H](CC1CCCCC1)NC(=O)[C@H](CO)NC(=O)[C@H](CCC(=O)O)NC(=O)[C@H](Cc1ccc2ccccc2c1)NC(=O)[C@H](CCCNC(=N)N)NC(=O)[C@H](CO)NC(=O)[C@@H](N)CO)C(=O)NCC(=O)N[C@@H](CCC(=O)O)C(=O)N[C@@H](CCCCN)C(=O)N[C@@H](CCC(=O)O)C(=O)N[C@@H](CO)C(=O)N[C@@H](CCCNC(=N)N)C(=O)NCC(=O)O` (H-SSR[2Nal]ES[Cha]WAGEKESRG-OH): the inhibitory constant (Ki) is 470 nM.

On to H-SSRFESLFAGEKESRG-OH, for which the Ki was 760 nM.

Take H-SSRFESWFAGEKESRG-OH: the Ki stood at 940 nM.

Consider H-SSRWESWFAGEKESRG-OH, for which the Ki amounted to 82900 nM.
